Experimental data from patent US4593104A, “2-halo-N-(azole-1-yl-methyl)-substituted acetanilides” (BASF Aktiengesellschaft, priority 1976, dated 1986).

Assays:
Assay in all cases: preemergence treatment in the greenhouse, % damage
Stell. med. = format: in vivo
From the text: (§1) The vessels employed were plastic flowerpots having a volume of 300 cm^3; the substrate was a sandy loam containing about 1.5% humus. The seeds of the test plants (see Table 1) were sown shallow, and separated according to species. In the case of Cyperus esculentus, pregerminated tubers were planted. In the preemergence treatment, the active ingredients were then immediately applied to the surface of the soil. They were suspended or emulsified in water as the vehicle, and sprayed through atomizing nozzles. After the agents had been applied, the vessels were lightly sprinkler-irrigated to set germination and growth going, and to activate the chemical agents. The vessels were then covered with transparent plastic hoods until the plants had taken root. This cover ensured uniform germination of the test plants (to the extent that this was not impaired by the chemicals), and prevented readily volatile substances from evaporating.
(§2) For postemergence treatment, the plants were first grown to a height of from 3 to 10 cm, depending on their habit, before treated. Hoods were not placed on the pots. The experiments were set up in the greenhouse, hotter areas (25° to 40° C.) being preferred for heat-loving species, and 15° to 30° C. for plants from moderate climates. The experiments were carried out for from 4 to 6 weeks. During this period the plants were tended and their reaction to the various treatments was assessed. The following tables contain the substances investigated, the application rates in kg/ha of active ingredient, and the test plant species. Assessments were made on a 0 to 100 scale, 0 denoting no damage or normal emergence, and 100 denoting no emergence or complete destruction of at least the visible plant parts.

Alopec. myosur. = format: in vivo
From the text: as §1, §2

Echin. c.g. = format: in vivo
From the text: as §1, §2

Euph. gen. = format: in vivo
From the text: as §1, §2

Amar. retro. = format: in vivo
From the text: as §1, §2

Cyp. diff. = format: in vivo
From the text: as §1, §2

Matric. spp. = format: in vivo
From the text: as §1, §2

Sorgh. halep. = format: in vivo
From the text: as §1, §2

Setaria spp. = format: in vivo
From the text: as §1, §2

Glyc. max = format: in vivo, Glycine max
From the text: as §1, §2

Gossyp. hirs. = format: in vivo, Gosspyium hirsutum
From the text: as §1, §2

Sorgh. bicol. = format: in vivo, Sorghum bicolor
From the text: as §1, §2

Zea mays = format: in vivo
From the text: as §1, §2

Beta vulg. = format: in vivo, Beta vulgaris
From the text: as §1, §2

Bromus spp. = format: in vivo
From the text: as §1, §2

Cyper. escul. = format: in vivo, Cyperus esculentus
From the text: as §1, §2

Solanum nigrum = format: in vivo
From the text: as §1, §2

| Structure (SMILES) | % damage (Alopec. myosur.; 0.5 kg/ha) [%] | % damage (Alopec. myosur.; 1.0 kg/ha) [%] | % damage (Echin. c.g.; 0.5 kg/ha) [%] | % damage (Echin. c.g.; 1.0 kg/ha) [%] | % damage (Euph. gen.; 0.5 kg/ha) [%] | % damage (Euph. gen.; 1.0 kg/ha) [%] | % damage (Amar. retro.; 0.5 kg/ha) [%] | % damage (Amar. retro.; 1.0 kg/ha) [%] | % damage (Setaria spp.; 0.5 kg/ha) [%] | % damage (Setaria spp.; 1.0 kg/ha) [%] | % damage (Glyc. max; 0.5 kg/ha) [%] | % damage (Glyc. max; 1.0 kg/ha) [%] | % damage (Gossyp. hirs.; 0.5 kg/ha) [%] | % damage (Gossyp. hirs.; 1.0 kg/ha) [%] | % damage (Sorgh. bicol.; 2.0 kg/ha) [%] | % damage (Alopec. myosur.; 2.0 kg/ha) [%] | % damage (Amar. retro.; 2.0 kg/ha) [%] | % damage (Setaria spp.; 2.0 kg/ha) [%] | % damage (Zea mays; 2.0 kg/ha) [%] | % damage (Glyc. max; 2.0 kg/ha) [%] | other results |
| --- | --- | --- | --- | --- | --- | --- | --- | --- | --- | --- | --- | --- | --- | --- | --- | --- | --- | --- | --- | --- | --- |
| Cc1ccc(C)c(N(Cn2cccn2)C(=O)CCl)c1C [Compound 14] | 100 | 100 | 100 | 100 | 95 | 95 | 100 | 100 | 100 | 100 | 10 | 20 | 0 | 15 |  |  |  |  |  |  | % damage (Stell. med.; 0.25 kg/ha): 90%; % damage (Stell. med.; 0.5 kg/ha): 100%; % damage (Stell. med.; 1.0 kg/ha): 100%; % damage (Alopec. myosur.; 0.25 kg/ha): 95%; % damage (Echin. c.g.; 0.25 kg/ha): 100%; % damage (Euph. gen.; 0.25 kg/ha): 80%; % damage (Amar. retro.; 0.25 kg/ha): 100%; % damage (Cyp. diff.; 0.25 kg/ha): 100%; % damage (Cyp. diff.; 0.5 kg/ha): 100%; % damage (Cyp. diff.; 1.0 kg/ha): 100%; % damage (Matric. spp.; 0.25 kg/ha): 80%; % damage (Matric. spp.; 0.5 kg/ha): 100%; % damage (Matric. spp.; 1.0 kg/ha): 100%; % damage (Sorgh. halep.; 0.25 kg/ha): 95%; % damage (Sorgh. halep.; 0.5 kg/ha): 95%; % damage (Sorgh. halep.; 1.0 kg/ha): 100%; % damage (Setaria spp.; 0.25 kg/ha): 100%; % damage (Glyc. max; 0.25 kg/ha): 10%; % damage (Gossyp. hirs.; 0.25 kg/ha): 0% |
| Cc1ccc(Cl)cc1N(Cn1cccn1)C(=O)CCl [Compound 24] |  |  |  |  |  |  |  |  |  |  |  |  |  |  | 10 | 100 | 95 | 85 | 0 | 10 | % damage (Beta vulg.; 2.0 kg/ha): 60% |
| Cc1cc(C)n(CN(C(=O)CCl)c2ccccc2)n1 [Compound 34] |  |  |  | 90 |  |  |  | 100 |  | 80 |  | 0 |  |  | 10 |  | 100 | 95 | 0 | 0 | % damage (Sorgh. bicol.; 1.0 kg/ha): 0%; % damage (Echin. c.g.; 2.0 kg/ha): 90%; % damage (Zea mays; 1.0 kg/ha): 0%; % damage (Bromus spp.; 1.0 kg/ha): 95%; % damage (Bromus spp.; 2.0 kg/ha): 95% |
| Cc1cc(C)n(CN(C(=O)CCl)c2c(C)ccc(C)c2C)n1 [Compound 47] | 100 | 100 | 95 | 100 | 10 | 20 | 100 | 100 | 100 | 100 | 20 | 30 | 0 | 0 |  |  |  |  |  |  | % damage (Stell. med.; 0.25 kg/ha): 30%; % damage (Stell. med.; 0.5 kg/ha): 80%; % damage (Stell. med.; 1.0 kg/ha): 100%; % damage (Alopec. myosur.; 0.25 kg/ha): 95%; % damage (Echin. c.g.; 0.25 kg/ha): 95%; % damage (Euph. gen.; 0.25 kg/ha): 10%; % damage (Amar. retro.; 0.25 kg/ha): 100%; % damage (Cyp. diff.; 0.25 kg/ha): 100%; % damage (Cyp. diff.; 0.5 kg/ha): 100%; % damage (Cyp. diff.; 1.0 kg/ha): 100%; % damage (Matric. spp.; 0.25 kg/ha): 80%; % damage (Matric. spp.; 0.5 kg/ha): 90%; % damage (Matric. spp.; 1.0 kg/ha): 100%; % damage (Sorgh. halep.; 0.25 kg/ha): 85%; % damage (Sorgh. halep.; 0.5 kg/ha): 90%; % damage (Sorgh. halep.; 1.0 kg/ha): 95%; % damage (Setaria spp.; 0.25 kg/ha): 100%; % damage (Glyc. max; 0.25 kg/ha): 20%; % damage (Gossyp. hirs.; 0.25 kg/ha): 0% |
| CCc1ccccc1N(Cn1ccc(C)n1)C(=O)CCl [Compound 69] | 100 |  |  |  |  |  | 95 |  | 80 |  | 20 |  |  |  |  |  |  |  |  |  | % damage (Sorgh. bicol.; 0.5 kg/ha): 10%; % damage (Zea mays; 0.5 kg/ha): 0%; % damage (Beta vulg.; 0.5 kg/ha): 20% |
| Cc1ccn(CN(C(=O)CCl)c2ccccc2C(C)C)n1 [Compound 72] |  | 100 |  |  |  |  |  | 95 |  | 90 |  | 10 |  |  | 40 | 100 | 95 | 95 | 10 | 20 | % damage (Sorgh. bicol.; 1.0 kg/ha): 20%; % damage (Zea mays; 1.0 kg/ha): 0%; % damage (Beta vulg.; 1.0 kg/ha): 10%; % damage (Beta vulg.; 2.0 kg/ha): 10% |
| Cc1cccc(C)c1N(Cn1nc(C)c(Cl)c1C)C(=O)CCl [Compound 106] |  | 100 |  |  |  |  |  | 95 |  | 90 |  | 10 |  |  | 70 | 100 | 95 | 95 | 50 | 10 | % damage (Sorgh. bicol.; 1.0 kg/ha): 70%; % damage (Zea mays; 1.0 kg/ha): 15%; % damage (Beta vulg.; 1.0 kg/ha): 10%; % damage (Beta vulg.; 2.0 kg/ha): 10% |
| CCc1cccc(C)c1N(Cn1nc(C)c(Cl)c1C)C(=O)CCl [Compound 107] |  |  |  |  |  |  |  |  |  |  |  |  |  |  | 85 | 95 | 95 | 95 | 0 | 0 | % damage (Beta vulg.; 2.0 kg/ha): 0% |
| CCc1cccc(CC)c1N(Cn1cncn1)C(=O)CCl [Compound 130] |  |  | 95 | 100 | 60 | 60 | 95 | 100 | 85 | 95 | 20 | 20 | 20 | 30 |  |  | 100 | 100 |  | 20 | % damage (Cyper. escul.; 0.5 kg/ha): 40%; % damage (Cyper. escul.; 1.0 kg/ha): 70%; % damage (Cyper. escul.; 2.0 kg/ha): 80%; % damage (Echin. c.g.; 2.0 kg/ha): 100%; % damage (Euph. gen.; 2.0 kg/ha): 100%; % damage (Solanum nigrum; 0.5 kg/ha): 100%; % damage (Solanum nigrum; 1.0 kg/ha): 100%; % damage (Solanum nigrum; 2.0 kg/ha): 100%; % damage (Gossyp. hirs.; 2.0 kg/ha): 30% |
| Cc1ccc(C)c(N(Cn2cncn2)C(=O)CCl)c1C [Compound 136] | 50 | 90 | 95 | 95 | 45 | 65 | 70 | 70 | 90 | 100 |  |  | 10 | 10 |  |  |  |  |  |  | % damage (Stell. med.; 0.5 kg/ha): 30%; % damage (Stell. med.; 1.0 kg/ha): 80%; % damage (Cyp. diff.; 0.5 kg/ha): 90%; % damage (Cyp. diff.; 1.0 kg/ha): 90%; % damage (Matric. spp.; 0.5 kg/ha): 50%; % damage (Matric. spp.; 1.0 kg/ha): 90%; % damage (Sorgh. halep.; 0.5 kg/ha): 80%; % damage (Sorgh. halep.; 1.0 kg/ha): 80% |
